Results from patent US8343961B2, “Substituted heterocyclic compounds” (ArQule, Inc., priority 2009, dated 2013).

What follows are compounds tested against T1, Tec kinase (Homo sapiens, UniProt P42680) (assay: Tec Kinase Activity Assay). Details: read-out: Tec % INH, at 30 uM.
T1 sequence (P42680 1-631): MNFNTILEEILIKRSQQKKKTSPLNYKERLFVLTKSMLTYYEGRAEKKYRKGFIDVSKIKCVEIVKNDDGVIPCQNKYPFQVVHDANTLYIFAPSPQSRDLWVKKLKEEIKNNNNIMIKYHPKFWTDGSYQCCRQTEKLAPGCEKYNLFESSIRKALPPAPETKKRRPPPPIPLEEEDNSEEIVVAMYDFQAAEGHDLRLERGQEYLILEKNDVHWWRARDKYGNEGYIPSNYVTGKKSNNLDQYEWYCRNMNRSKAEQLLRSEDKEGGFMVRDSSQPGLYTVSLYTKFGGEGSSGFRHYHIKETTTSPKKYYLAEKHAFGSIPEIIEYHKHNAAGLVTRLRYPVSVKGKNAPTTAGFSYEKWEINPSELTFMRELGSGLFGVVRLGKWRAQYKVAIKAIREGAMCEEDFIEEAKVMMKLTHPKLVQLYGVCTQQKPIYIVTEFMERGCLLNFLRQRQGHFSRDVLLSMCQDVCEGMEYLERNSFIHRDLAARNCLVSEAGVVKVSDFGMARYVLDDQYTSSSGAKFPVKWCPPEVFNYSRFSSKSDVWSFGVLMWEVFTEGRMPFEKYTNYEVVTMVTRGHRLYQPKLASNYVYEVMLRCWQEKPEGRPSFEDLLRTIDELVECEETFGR
Assay type: biochemical
Method: The disclosed compounds were assayed for their ability to inhibit the activity of Tec kinase. Nunc Maxisorb plates were coated with streptavidin by overnight incubation with 100 μL per well of 1 μg/mL Streptavidin in DPBS. Prior to the start of the experiment, the plates were washed with TBST (3×200 μL) and blocked for at least 1 hour by adding 150 μL of 5% BSA/TBST. The plates were washed with TBST (3×200 μL/well) and left dry immediately before the capture step.
The test articles and controls (Staurosporine and Sutent) were prepared using the following assay buffer @ 3× desired final concentration (50 mM Tris-HCl, 0.02 mg/mL BSA, 10 mM MgCl2, 0.1 mM Na3VO4, 1 mM EGTA, 75 μM ATP0.01% NP-40, 2 mM DTT in 10% glycerol/water). In a reaction plate were added rapidly 20 μL test article (or control) and 20 μL TEC 0.25 ng/4. The plate was incubated for 30 minutes. To the reaction plate was added 20 μL of Pyk-2.5 ng/μL. The plate was incubated at room temperature for two hours. From the reaction plate, 50 μL was transferred to the streptavidin coated plate. The capture plate was incubated at room temperature for 30 minutes then washed 6× with TBST. To the capture plate was added 100 μL/well of Cell Signaling anti-phospho tyrosine at a dilution of 1:3000 in 2% BSA/TBST. The plate was incubated for one hour at room temperature then washed 6× with TBST. To the capture plate was added 100 μL/well of Alkaline Phosphatase Tagged Goat anti Mouse Antibody at a dilution of 1:4000 in 2% BSA/TBST. The plate was incubated for one hour at room temperature then washed 6× with TBST. The fluorescent readout was initiated by the addition of 100 μL/well of Attophos reagent (6 mg/10 mL). The reading was done on the Perkin Elmer Envision system.

inhibition at 30 µM | SMILES
50 to 79% | COc1ccc(CN2CCN(c3nc(N)nc4[nH]cnc34)Cc3ccccc32)cc1OC [Compound 27, 6-[1-(3,4-dimethoxybenzyl)-1,2,3,5-tetrahydro-4H-1,4-benzodiazepin-4-yl]-9H-purin-2-amine]
50 to 79% | COc1ccc(OC)c(CN2CCN(c3nc(N)nc4[nH]cnc34)Cc3ccccc32)c1 [Compound 35, 6-[1-(2,5-dimethoxybenzyl)-1,2,3,5-tetrahydro-4H-1,4-benzodiazepin-4-yl]-9H-purin-2-amine]
50 to 79% | Nc1nc(N2CCN(Cc3cccc(F)c3)c3ccccc3C2)c2cn[nH]c2n1 [Compound 6, 4-[1-(3-fluorobenzyl)-1,2,3,5-tetrahydro-4H-1,4-benzodiazepin-4-yl]-1H-pyrazolo[3,4-d]pyrimidin-6-amine]
50 to 79% | Nc1nc(N2CCN(Cc3ccc(F)cc3F)c3ccccc3C2)c2nc[nH]c2n1 [Compound 37, 6-[1-(2,4-difluorobenzyl)-1,2,3,5-tetrahydro-4H-1,4-benzodiazepin-4-yl]-9H-purin-2-amine]
< 50% | Nc1nc(N2CCN(Cc3ccc(Cl)cc3)c3ccccc3C2)c2cn[nH]c2n1 [Compound 23, 4-[1-(4-chlorobenzyl)-1,2,3,5-tetrahydro-4H-1,4-benzodiazepin-4-yl]-1H-pyrazolo[3,4-d]pyrimidin-6-amine]
> 79% | COc1cccc(CN2CCN(c3nc(N)nc4[nH]ncc34)Cc3ccccc32)c1 [Compound 1, 4-[1-(3-methoxybenzyl)-1,2,3,5-tetrahydro-4H-1,4-benzodiazepin-4-yl]-1H-pyrazolo[3,4-d]pyrimidin-6-amine]
50 to 79% | CC(C)(C)c1ccc(CN2CCN(c3nc(N)nc4[nH]ncc34)Cc3ccccc32)cc1 [Compound 30, 4-[1-(4-tert-butylbenzyl)-1,2,3,5-tetrahydro-4H-1,4-benzodiazepin-4-yl]-1H-pyrazolo[3,4-d]pyrimidin-6-amine]
50 to 79% | Nc1nc(N2CCN(CCCc3cccc(Cl)c3)c3ccccc3C2)c2nc[nH]c2n1 [Compound 7, 6-{1-[3-(3-chlorophenyl)propyl]-1,2,3,5-tetrahydro-4H-1,4-benzodiazepin-4-yl}-9H-purin-2-amine]
50 to 79% | Nc1nc(N2CCN(Cc3cccc(C(F)(F)F)c3)c3ccccc3C2)c2nc[nH]c2n1 [Compound 20, 6-{1-[3-(trifluoromethyl)benzyl]-1,2,3,5-tetrahydro-4H-1,4-benzodiazepin-4-yl}-9H-purin-2-amine]
> 79% | Nc1nc(N2CCN(Cc3ccc(Cl)c(Cl)c3)c3ccccc3C2)c2cn[nH]c2n1 [Compound 43, 4-[1-(3,4-dichlorobenzyl)-1,2,3,5-tetrahydro-4H-1,4-benzodiazepin-4-yl]-1H-pyrazolo[3,4-d]pyrimidin-6-amine]
50 to 79% | Nc1nc(N2CCN(Cc3cccc4ccccc34)c3ccccc3C2)c2nc[nH]c2n1 [Compound 17, 6-[1-(1-naphthylmethyl)-1,2,3,5-tetrahydro-4H-1,4-benzodiazepin-4-yl]-9H-purin-2-amine]
50 to 79% | CC(C)c1ccc(CN2CCN(c3nc(N)nc4[nH]ncc34)Cc3ccccc32)cc1 [Compound 4, 4-[1-(4-isopropylbenzyl)-1,2,3,5-tetrahydro-4H-1,4-benzodiazepin-4-yl]-1H-pyrazolo[3,4-d]pyrimidin-6-amine]
50 to 79% | Cc1ccccc1CN1CCN(c2nc(N)nc3[nH]cnc23)Cc2ccccc21 [Compound 11, 6-[1-(2-methylbenzyl)-1,2,3,5-tetrahydro-4H-1,4-benzodiazepin-4-yl]-9H-purin-2-amine]
50 to 79% | Nc1nc(N2CCN(Cc3ccc(F)cc3F)c3ccccc3C2)c2cn[nH]c2n1 [Compound 38, 4-[1-(2,4-difluorobenzyl)-1,2,3,5-tetrahydro-4H-1,4-benzodiazepin-4-yl]-1H-pyrazolo[3,4-d]pyrimidin-6-amine]
> 79% | Cc1ccc(CCCN2CCN(c3nc(N)nc4[nH]ncc34)Cc3ccccc32)cc1 [Compound 45, 4-{1-[3-(4-methylphenyl)propyl]-1,2,3,5-tetrahydro-4H-1,4-benzodiazepin-4-yl}-1H-pyrazolo[3,4-d]pyrimidin-6-amine]
< 50% | Cc1cccc(CN2CCN(c3nc(N)nc4[nH]cnc34)Cc3ccccc32)c1 [Compound 33, 6-[1-(3-methylbenzyl)-1,2,3,5-tetrahydro-4H-1,4-benzodiazepin-4-yl]-9H-purin-2-amine]
